Results taken from ChEMBL document CHEMBL3045557, “A new benzil derivative from Derris scandens: Structure-insecticidal activity study” (2010).
Active and inactive are the calls of the source. The rule behind the calls is not given here.

Tests used:
Achaea janata [1] = experiment: Insecticidal activity against Achaea janata assessed as adult deformity at 4 ug/larva administered through topical application; type: functional
Achaea janata [2] = experiment: Antifeedant activity against Achaea janata by conventional no-choice disk method; type: functional
Achaea janata [3] = experiment: Insecticidal activity against Achaea janata assessed as adult emergence at 2 ug/larva administered through topical application (reference value: 98.8 +/- 0.5 %); type: functional
Achaea janata [4] = experiment: Insecticidal activity against Achaea janata assessed as pupal duration at 2 ug/larva administered through topical application (reference value: 10.3 +/- 0.1 days); type: functional
Achaea janata [5] = experiment: Insecticidal activity against Achaea janata assessed as pupal weight at 4 ug/larva administered through topical application (reference value: 696.4 +/- 2.6 mg); type: functional
Achaea janata [6] = experiment: Antifeedant activity against Achaea janata at 1.25 ug/cm2 by conventional no-choice disk method; type: functional
Achaea janata [7] = experiment: Insecticidal activity against Achaea janata assessed as pupal mortality at 2 ug/larva administered through topical application; type: functional
Achaea janata [8] = experiment: Toxicity against Achaea janata at 1.25 ug/cm2 after 24 hr by leaf disk method; type: functional
Achaea janata [9] = experiment: Insecticidal activity against Achaea janata assessed as adult deformity at 2 ug/larva administered through topical application; type: functional
Achaea janata [10] = experiment: Insecticidal activity against Achaea janata assessed as larval mortality at 0.2 ug/larva administered through topical application; type: functional
Achaea janata [11] = experiment: Toxicity against Achaea janata after 24 hr by leaf disk method; type: functional
Achaea janata [12] = experiment: Insecticidal activity against Achaea janata assessed as pupal weight at 2 ug/larva administered through topical application (reference value: 696.4 +/- 2.6 mg); type: functional
Achaea janata [13] = experiment: Insecticidal activity against Achaea janata assessed as pupal duration at 4 ug/larva administered through topical application (reference value: 10.3 +/- 0.1 days); type: functional
Achaea janata [14] = experiment: Insecticidal activity against Achaea janata assessed as adult emergence at 4 ug/larva administered through topical application (reference value: 98.8 +/- 0.5 %); type: functional
Achaea janata [15] = experiment: Insecticidal activity against Achaea janata assessed as pupal mortality at 4 ug/larva administered through topical application; type: functional
Achaea janata [16] = experiment: Antifeedant activity against Achaea janata at 10 ug/cm2 by conventional no-choice disk method; type: functional
Achaea janata [17] = experiment: Antifeedant activity against Achaea janata at 2 ug/cm2 by conventional no-choice disk method; type: functional, organism-based
Achaea janata [18] = experiment: Insecticidal activity against Achaea janata assessed as larval duration at 2 ug/larva administered through topical application (reference value: 7.3 +/- 0.1 days); type: functional
Achaea janata [19] = experiment: Antifeedant activity against Achaea janata at 1 ug/cm2 by conventional no-choice disk method; type: functional, organism-based
Achaea janata [20] = experiment: Insecticidal activity against Achaea janata assessed as larval mortality at 4 ug/larva administered through topical application; type: functional
Achaea janata [21] = experiment: Toxicity against Achaea janata at 10 ug/cm2 after 24 hr by leaf disk method; type: functional
Achaea janata [22] = experiment: Insecticidal activity against Achaea janata assessed as larval mortality at 2 ug/larva administered through topical application; type: functional
Achaea janata [23] = experiment: Insecticidal activity against Achaea janata assessed as larval duration at 4 ug/larva administered through topical application (reference value: 7.3 +/- 0.1 days); type: functional

Compound	Activity (Achaea janata [1])	ED50 (Achaea janata [2])	Activity (Achaea janata [3])	Time (Achaea janata [4])	Activity (Achaea janata [5])	mortality (Achaea janata [7])	Activity (Achaea janata [9])	LD50 (Achaea janata [11])	Activity (Achaea janata [12])	Time (Achaea janata [13])	Activity (Achaea janata [14])	mortality (Achaea janata [15])	AFI (Achaea janata [16])	AFI (Achaea janata [17])	Time (Achaea janata [18])	AFI (Achaea janata [19])	mortality (Achaea janata [20])	Activity (Achaea janata [21])	mortality (Achaea janata [22])	Time (Achaea janata [23])	other results
C/C=C(\C)C(=O)O[C@H]1C[C@@H](OC(C)=O)[C@@]2(C(=O)OC)CO[C@H]3[C@@H](O)[C@@](C)([C@]45O[C@@]4(C)[C@@H]4C[C@H]5O[C@@H]5OC=C[C@@]54O)[C@H]4[C@]1(CO[C@]4(O)C(=O)OC)[C@@H]32 [AZADIRACHTIN A]	0%	0.72 microg/cm2	98.8%	10.3 days	696.4 mg	0%	0%	0.67 microg/cm2	696.4 mg	10.3 days	98.8%	0%	–	–	–	–	–	–	–	–	AFI (Achaea janata [6]): 100%; Activity (Achaea janata [8]): 100%; mortality (Achaea janata [10]): 100%
CC(C)=CCc1cc(-c2coc3cc(O)c(CC=C(C)C)c(O)c3c2=O)ccc1O [LUPALBIGENIN]	9.1%	inactive	62.7%	11.4 days	587 mg	26.4%	9.5%	inactive	612 mg	12.9 days	32.8%	32.2%	22.4%	inactive	7.7 days	inactive	18.8%	0%	0%	9.7 days	–
CC(C)=CCc1c2c(c3occ(-c4ccc(O)cc4)c(=O)c3c1O)C=CC(C)(C)O2 [OSAJIN]	15.7%	3.18 microg/cm2	18%	13.8 days	504.8 mg	47.8%	10%	3.54 microg/cm2	584.8 mg	15.5 days	2.9%	45.6%	100%	inactive	10.4 days	inactive	33.4%	98.2%	12.2%	11.2 days	–
COc1ccc(-c2c(O)c3c(OC)c(CC=C(C)C)c4c(c3oc2=O)C=CC(C)(C)O4)cc1 [SCANDENIN A]	6.6%	inactive	71.5%	10.5 days	605 mg	19.8%	0%	inactive	601.2 mg	10.5 days	31.5%	32.8%	4%	inactive	9.3 days	inactive	15.2%	0%	11.6%	11.1 days	–
COc1c(CC=C(C)C)c2c(c3oc(=O)c(-c4ccc(O)cc4)c(O)c13)C=CC(C)(C)O2 [SCANDENIN]	10.9%	3.85 microg/cm2	75.3%	11.2 days	514.2 mg	13.5%	0%	5.28 microg/cm2	550.8 mg	11.3 days	18.6%	24.8%	96.5%	inactive	8.2 days	inactive	42.6%	86.4%	0%	10.8 days	–
COc1c(CC=C(C)C)c2c(c3occ(-c4ccc(O)cc4)c(=O)c13)C=CC(C)(C)O2 [SCANDINONE]	5.4%	inactive	65.3%	11.8 days	592 mg	13.6%	3.5%	inactive	621.8 mg	12.5 days	34.2%	23.4%	1.3%	inactive	8.2 days	inactive	17%	14.6%	6.8%	10.5 days	–
C[C@@H]1O[C@@H](OC[C@H]2O[C@@H](Oc3cc(O)c4c(=O)c(-c5ccc(O)cc5)coc4c3)[C@H](O)[C@@H](O)[C@@H]2O)[C@H](O)[C@H](O)[C@H]1O [SPHAEROBIOSIDE]	9.5%	3.37 microg/cm2	32.7%	13.3 days	504.8 mg	36%	0%	3.87 microg/cm2	508.6 mg	14.4 days	7.5%	41.2%	96.2%	inactive	10.8 days	inactive	31.8%	97.8%	13%	11.3 days	–
CC(C)=CCc1c2c(c(O)c3c(=O)c(-c4ccc(O)cc4)coc13)C=CC(C)(C)O2 [WARANGALONE]	11.8%	inactive	63.6%	11.7 days	572.6 mg	17.8%	5.5%	inactive	633.2 mg	11.9 days	50.3%	27.6%	6.2%	inactive	9.4 days	inactive	0%	6.8%	0%	9.8 days	–
